Test results published in PMC12656268, “Venom Peptides Across Asian and American Tarantulas Utilize Dual Pharmacology to Target Activation and Fast Inactivation of Voltage-Gated Sodium Channels” (Toxins, 2025).
Positions of bridges follow the written chain, without caps; N, C: chain ends. Residues, ends and D or L forms follow the SMILES beside them.

Experiments:
hNaV1.4 = hNaV1.4 (Homo sapiens, UniProt P35499); assay: hNaV1.4 peak current inhibition, automated whole-cell patch clamp (QPatch 16X); format: cell-based; details: for IC50: HEK293 + β1, holding −80 mV, 20 ms step to 0 mV from −120 mV 200 ms prepulse, 5 min incubation, mean ± SEM, 3 to 9 independent experiments, read-out: IC50, inhibition of peak current, NaV1.4
Protocol: (§1) Unless otherwise specified, all cell culture reagents were obtained from Life Technologies (Carlsbad, CA, USA). The human neuroblastoma cell line SH-SY5Y (ATCC CRL-2266; Manassas, VA, USA) was maintained in RPMI medium supplemented with 15% fetal bovine serum (FBS) and 2 mM L-glutamine. HEK293 cells stably expressing human NaV channel isoforms together with the β1 auxiliary subunit (SB Drug Discovery, Glasgow, UK) were propagated in Minimal Essential Medium (MEM; Sigma-Aldrich, St. Louis, MO, USA) containing 10% FBS, 100 U/mL penicillin, 100 µg/mL streptomycin, 2 mM L-glutamine, and selective antibiotics (blasticidin, geneticin, and zeocin) at concentrations recommended by the supplier. […]
(§2) Sodium channel currents were recorded from HEK293 cells expressing human NaV isoforms together with the β1 auxiliary subunit (SB Drug Discovery, Glasgow, UK) using the QPatch 16X automated whole-cell patch-clamp platform (Sophion Bioscience A/S, Ballerup, Denmark). […] For determining the potency of Oa1a peptides to inhibit peak current, the maximum peak current within the 20 ms at 0 mV was measured. For determining the potency of Oa1a-NH2 to slow fast inactivation, peak current values were measured at 20 ms of the 0 mV depolarization step. […]
(§3) For calcium influx experiments, bioactivity comparisons between venom fractions and controls were based on the difference between the maximal and minimal fluorescence intensity values obtained from single-replicate assays. […] Reversibility and dissociation kinetics were analyzed by fitting data with a single-phase exponential decay model, while voltage-dependence of steady-state activation and inactivation parameters were derived from Boltzmann sigmoid fits of normalized conductance (G/Gmax) or current (I/Imax) values to determine the half-activation or half-inactivation voltages (V50). Data are expressed as mean ± SEM, where n represents the number of individual cells analyzed.

NaV1.3 = NaV1.3 (Homo sapiens, UniProt Q9NY46); assay: Slowing of fast inactivation of NaV1.3; format: cell-based; details: for Slowing of fast inactivation of NaV1.3 (in words): closed-state voltage protocol, current traces, concentrations up to those of IC50 curves
Sequence of NaV1.3 (Q9NY46 whole entry, canonical isoform): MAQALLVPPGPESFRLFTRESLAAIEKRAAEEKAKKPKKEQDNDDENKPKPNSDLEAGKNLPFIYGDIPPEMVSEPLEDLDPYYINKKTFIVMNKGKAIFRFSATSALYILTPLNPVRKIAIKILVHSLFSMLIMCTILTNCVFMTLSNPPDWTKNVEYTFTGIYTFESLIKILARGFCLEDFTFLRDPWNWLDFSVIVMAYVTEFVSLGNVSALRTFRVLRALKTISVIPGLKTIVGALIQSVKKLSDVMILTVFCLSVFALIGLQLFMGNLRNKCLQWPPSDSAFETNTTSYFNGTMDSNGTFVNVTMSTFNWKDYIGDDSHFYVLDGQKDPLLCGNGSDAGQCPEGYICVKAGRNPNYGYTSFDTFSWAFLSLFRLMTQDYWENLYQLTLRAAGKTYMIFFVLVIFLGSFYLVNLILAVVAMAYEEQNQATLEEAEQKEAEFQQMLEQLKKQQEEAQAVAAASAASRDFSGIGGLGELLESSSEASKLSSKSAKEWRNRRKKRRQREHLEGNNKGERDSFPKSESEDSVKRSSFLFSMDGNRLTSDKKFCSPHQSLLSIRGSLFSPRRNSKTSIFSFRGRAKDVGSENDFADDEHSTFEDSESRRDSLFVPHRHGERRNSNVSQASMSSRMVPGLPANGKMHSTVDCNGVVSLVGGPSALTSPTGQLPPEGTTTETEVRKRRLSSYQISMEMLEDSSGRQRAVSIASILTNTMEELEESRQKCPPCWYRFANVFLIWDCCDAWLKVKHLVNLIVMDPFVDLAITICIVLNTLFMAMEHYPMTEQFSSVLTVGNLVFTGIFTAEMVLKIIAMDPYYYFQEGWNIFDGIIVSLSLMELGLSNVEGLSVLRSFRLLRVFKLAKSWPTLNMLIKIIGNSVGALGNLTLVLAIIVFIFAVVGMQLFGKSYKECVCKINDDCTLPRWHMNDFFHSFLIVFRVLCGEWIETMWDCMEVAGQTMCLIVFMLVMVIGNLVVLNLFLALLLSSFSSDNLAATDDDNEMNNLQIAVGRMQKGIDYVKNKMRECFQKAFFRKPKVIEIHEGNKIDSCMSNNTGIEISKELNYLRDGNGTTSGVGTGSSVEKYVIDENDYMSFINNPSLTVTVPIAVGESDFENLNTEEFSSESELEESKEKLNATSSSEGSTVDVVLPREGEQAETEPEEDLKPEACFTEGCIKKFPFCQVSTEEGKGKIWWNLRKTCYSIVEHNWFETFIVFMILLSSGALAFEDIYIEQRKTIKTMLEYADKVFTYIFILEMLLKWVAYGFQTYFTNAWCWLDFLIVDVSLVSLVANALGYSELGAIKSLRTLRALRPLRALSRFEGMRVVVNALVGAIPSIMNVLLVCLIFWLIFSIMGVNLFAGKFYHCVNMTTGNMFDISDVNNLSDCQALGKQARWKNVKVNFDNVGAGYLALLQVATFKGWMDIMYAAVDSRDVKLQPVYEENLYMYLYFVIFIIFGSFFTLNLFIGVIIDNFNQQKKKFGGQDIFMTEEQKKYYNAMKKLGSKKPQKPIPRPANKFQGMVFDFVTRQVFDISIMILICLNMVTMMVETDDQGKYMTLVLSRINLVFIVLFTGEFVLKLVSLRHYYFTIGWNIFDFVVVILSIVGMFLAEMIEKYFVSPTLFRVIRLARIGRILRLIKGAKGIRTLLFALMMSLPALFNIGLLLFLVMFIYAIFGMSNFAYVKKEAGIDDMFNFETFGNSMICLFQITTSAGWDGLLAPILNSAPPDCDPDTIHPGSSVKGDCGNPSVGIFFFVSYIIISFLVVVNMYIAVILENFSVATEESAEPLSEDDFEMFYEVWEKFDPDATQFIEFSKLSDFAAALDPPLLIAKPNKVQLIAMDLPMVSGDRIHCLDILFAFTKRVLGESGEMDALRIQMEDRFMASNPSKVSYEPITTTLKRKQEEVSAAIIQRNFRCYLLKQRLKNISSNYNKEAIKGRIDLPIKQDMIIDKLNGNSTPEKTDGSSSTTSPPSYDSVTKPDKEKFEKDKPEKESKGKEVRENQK
Sequence of NaV1.3 (Q07699 19-218, further chain): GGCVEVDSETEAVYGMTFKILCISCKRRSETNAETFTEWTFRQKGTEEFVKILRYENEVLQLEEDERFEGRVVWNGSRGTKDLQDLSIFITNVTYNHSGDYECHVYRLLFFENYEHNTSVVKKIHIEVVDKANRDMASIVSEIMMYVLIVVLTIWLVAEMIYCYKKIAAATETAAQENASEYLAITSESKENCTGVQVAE
Protocol: Sodium channel currents were recorded from HEK293 cells expressing human NaV isoforms together with the β1 auxiliary subunit (SB Drug Discovery, Glasgow, UK) using the QPatch 16X automated whole-cell patch-clamp platform (Sophion Bioscience A/S, Ballerup, Denmark). The external recording solution contained (in mM) the following: 140 NaCl, 3 KCl, 1 CaCl2, 1 MgCl2, 0.1 CdCl2, 20 tetraethylammonium chloride (TEA-Cl), and 5 HEPES; pH was adjusted to 7.3 and osmolarity to 320 mOsm. The internal (pipette) solution consisted of (in mM) the following: 140 CsF, 10 NaCl, 10 HEPES, and 1/5 EGTA/CsOH, also adjusted to pH 7.3 and 320 mOsm. Cells were voltage-clamped at a holding potential of −80 mV, and inward Na^+ currents were evoked by 20 ms depolarizing pulses to 0 mV following a 200 ms hyperpolarizing prepulse to −120 mV. To obtain concentration–response curves, cells at holding potential were incubated for 5 min with increasing concentrations of Oa1a peptides. For determining the potency of Oa1a peptides to inhibit peak current, the maximum peak current within the 20 ms at 0 mV was measured. For determining the potency of Oa1a-NH2 to slow fast inactivation, peak current values were measured at 20 ms of the 0 mV depolarization step. Ion currents (INa) were plotted as I/Imax, where I = current value and Imax = highest current value within the experiment.
(§4) For calcium influx experiments, bioactivity comparisons between venom fractions and controls were based on the difference between the maximal and minimal fluorescence intensity values obtained from single-replicate assays. Electrophysiological data analysis was conducted using GraphPad Prism (version 8; GraphPad Software, San Diego, CA, USA). Nonlinear regression was applied to fit the concentration–response relationships using a variable Hill slope: log(inhibitor) versus normalized response for determining IC50 values, and log(agonist) versus normalized response for EC50 calculations. Reversibility and dissociation kinetics were analyzed by fitting data with a single-phase exponential decay model, while voltage-dependence of steady-state activation and inactivation parameters were derived from Boltzmann sigmoid fits of normalized conductance (G/Gmax) or current (I/Imax) values to determine the half-activation or half-inactivation voltages (V50). Data are expressed as mean ± SEM, where n represents the number of individual cells analyzed.

hNaV1.1 to hNaV1.7 = assay: NaV subtype preference across NaV1.1 to NaV1.7, patch clamp; format: cell-based, human; details: NaV1.1 to NaV1.7, closed-state voltage protocol
Protocol: Unless otherwise specified, all cell culture reagents were obtained from Life Technologies (Carlsbad, CA, USA). The human neuroblastoma cell line SH-SY5Y (ATCC CRL-2266; Manassas, VA, USA) was maintained in RPMI medium supplemented with 15% fetal bovine serum (FBS) and 2 mM L-glutamine. HEK293 cells stably expressing human NaV channel isoforms together with the β1 auxiliary subunit (SB Drug Discovery, Glasgow, UK) were propagated in Minimal Essential Medium (MEM; Sigma-Aldrich, St. Louis, MO, USA) containing 10% FBS, 100 U/mL penicillin, 100 µg/mL streptomycin, 2 mM L-glutamine, and selective antibiotics (blasticidin, geneticin, and zeocin) at concentrations recommended by the supplier. HEK293T cells expressing the human CaV3.2 channel (a generous gift from Prof. Emmanuel Bourinet, Institut de Génomique Fonctionnelle, Université de Montpellier, France, and Prof. Edward Perez-Reyes, University of Virginia School of Medicine, USA) were grown in Dulbecco’s MEM supplemented with 10% FBS, 100 U/mL penicillin, 100 µg/mL streptomycin, and 750 µg/mL geneticin.
Sodium channel currents were recorded from HEK293 cells expressing human NaV isoforms together with the β1 auxiliary subunit (SB Drug Discovery, Glasgow, UK) using the QPatch 16X automated whole-cell patch-clamp platform (Sophion Bioscience A/S, Ballerup, Denmark). The external recording solution contained (in mM) the following: 140 NaCl, 3 KCl, 1 CaCl2, 1 MgCl2, 0.1 CdCl2, 20 tetraethylammonium chloride (TEA-Cl), and 5 HEPES; pH was adjusted to 7.3 and osmolarity to 320 mOsm. The internal (pipette) solution consisted of (in mM) the following: 140 CsF, 10 NaCl, 10 HEPES, and 1/5 EGTA/CsOH, also adjusted to pH 7.3 and 320 mOsm. […] For determining the potency of Oa1a peptides to inhibit peak current, the maximum peak current within the 20 ms at 0 mV was measured. For determining the potency of Oa1a-NH2 to slow fast inactivation, peak current values were measured at 20 ms of the 0 mV depolarization step. […]
as §3

hNaV1.1 = hNaV1.1 (Homo sapiens, UniProt P35498); assay: hNaV1.1 peak current inhibition, automated whole-cell patch clamp (QPatch 16X); format: cell-based; details: for IC50: HEK293 + β1, holding −80 mV, 20 ms step to 0 mV from −120 mV 200 ms prepulse, 5 min incubation, mean ± SEM, 3 to 9 independent experiments, read-out: IC50, inhibition of peak current, NaV1.1
Protocol: as §1, §2, §3

NaV1.1 = NaV1.1 (Homo sapiens, UniProt P35498); assay: Off-rate / reversibility on NaV1.1, patch clamp with saline washes; format: cell-based; details: for 95% CI of off-rate (dissociation time), NaV1.1: peptide at 10× IC50 for 10 min, then saline washes, 3 to 5 independent repeats; for Reversibility on NaV1.1 by washing: peptide at 10× IC50 for NaV1.1, then washing
Protocol: For off-rate measurements, cells at a holding potential −80 mV were incubated with peptide for 10 min at a concentration equivalent to 10 times their IC50 for the NaV subtype being analyzed, followed by saline washes. Na^+ currents were assessed every 10 s utilizing a holding potential −80 mV and currents elicited by 20 ms voltage step to 0 mV from a −120 mV conditioning pulse applied for 200 ms. Ion currents (INa) plotted as I/Imax, where I = current value and Imax = highest current value within the experiment.
as §4

hNaV1.5 = hNaV1.5 (Homo sapiens, UniProt Q14524); assay: hNaV1.5 peak current inhibition, automated whole-cell patch clamp (QPatch 16X); format: cell-based; details: for IC50: HEK293 + β1, holding −80 mV, 20 ms step to 0 mV from −120 mV 200 ms prepulse, 5 min incubation, mean ± SEM, 3 to 9 independent experiments, read-out: IC50, inhibition of peak current, NaV1.5
Protocol: as §1, §2, §3

hNaV1.2 = hNaV1.2 (Homo sapiens, UniProt Q99250); assay: hNaV1.2 peak current inhibition, automated whole-cell patch clamp (QPatch 16X); format: cell-based; details: for IC50: HEK293 + β1, holding −80 mV, 20 ms step to 0 mV from −120 mV 200 ms prepulse, 5 min incubation, mean ± SEM, 3 to 9 independent experiments, read-out: IC50, inhibition of peak current, NaV1.2
Sequence of hNaV1.2 (Q99250 whole entry): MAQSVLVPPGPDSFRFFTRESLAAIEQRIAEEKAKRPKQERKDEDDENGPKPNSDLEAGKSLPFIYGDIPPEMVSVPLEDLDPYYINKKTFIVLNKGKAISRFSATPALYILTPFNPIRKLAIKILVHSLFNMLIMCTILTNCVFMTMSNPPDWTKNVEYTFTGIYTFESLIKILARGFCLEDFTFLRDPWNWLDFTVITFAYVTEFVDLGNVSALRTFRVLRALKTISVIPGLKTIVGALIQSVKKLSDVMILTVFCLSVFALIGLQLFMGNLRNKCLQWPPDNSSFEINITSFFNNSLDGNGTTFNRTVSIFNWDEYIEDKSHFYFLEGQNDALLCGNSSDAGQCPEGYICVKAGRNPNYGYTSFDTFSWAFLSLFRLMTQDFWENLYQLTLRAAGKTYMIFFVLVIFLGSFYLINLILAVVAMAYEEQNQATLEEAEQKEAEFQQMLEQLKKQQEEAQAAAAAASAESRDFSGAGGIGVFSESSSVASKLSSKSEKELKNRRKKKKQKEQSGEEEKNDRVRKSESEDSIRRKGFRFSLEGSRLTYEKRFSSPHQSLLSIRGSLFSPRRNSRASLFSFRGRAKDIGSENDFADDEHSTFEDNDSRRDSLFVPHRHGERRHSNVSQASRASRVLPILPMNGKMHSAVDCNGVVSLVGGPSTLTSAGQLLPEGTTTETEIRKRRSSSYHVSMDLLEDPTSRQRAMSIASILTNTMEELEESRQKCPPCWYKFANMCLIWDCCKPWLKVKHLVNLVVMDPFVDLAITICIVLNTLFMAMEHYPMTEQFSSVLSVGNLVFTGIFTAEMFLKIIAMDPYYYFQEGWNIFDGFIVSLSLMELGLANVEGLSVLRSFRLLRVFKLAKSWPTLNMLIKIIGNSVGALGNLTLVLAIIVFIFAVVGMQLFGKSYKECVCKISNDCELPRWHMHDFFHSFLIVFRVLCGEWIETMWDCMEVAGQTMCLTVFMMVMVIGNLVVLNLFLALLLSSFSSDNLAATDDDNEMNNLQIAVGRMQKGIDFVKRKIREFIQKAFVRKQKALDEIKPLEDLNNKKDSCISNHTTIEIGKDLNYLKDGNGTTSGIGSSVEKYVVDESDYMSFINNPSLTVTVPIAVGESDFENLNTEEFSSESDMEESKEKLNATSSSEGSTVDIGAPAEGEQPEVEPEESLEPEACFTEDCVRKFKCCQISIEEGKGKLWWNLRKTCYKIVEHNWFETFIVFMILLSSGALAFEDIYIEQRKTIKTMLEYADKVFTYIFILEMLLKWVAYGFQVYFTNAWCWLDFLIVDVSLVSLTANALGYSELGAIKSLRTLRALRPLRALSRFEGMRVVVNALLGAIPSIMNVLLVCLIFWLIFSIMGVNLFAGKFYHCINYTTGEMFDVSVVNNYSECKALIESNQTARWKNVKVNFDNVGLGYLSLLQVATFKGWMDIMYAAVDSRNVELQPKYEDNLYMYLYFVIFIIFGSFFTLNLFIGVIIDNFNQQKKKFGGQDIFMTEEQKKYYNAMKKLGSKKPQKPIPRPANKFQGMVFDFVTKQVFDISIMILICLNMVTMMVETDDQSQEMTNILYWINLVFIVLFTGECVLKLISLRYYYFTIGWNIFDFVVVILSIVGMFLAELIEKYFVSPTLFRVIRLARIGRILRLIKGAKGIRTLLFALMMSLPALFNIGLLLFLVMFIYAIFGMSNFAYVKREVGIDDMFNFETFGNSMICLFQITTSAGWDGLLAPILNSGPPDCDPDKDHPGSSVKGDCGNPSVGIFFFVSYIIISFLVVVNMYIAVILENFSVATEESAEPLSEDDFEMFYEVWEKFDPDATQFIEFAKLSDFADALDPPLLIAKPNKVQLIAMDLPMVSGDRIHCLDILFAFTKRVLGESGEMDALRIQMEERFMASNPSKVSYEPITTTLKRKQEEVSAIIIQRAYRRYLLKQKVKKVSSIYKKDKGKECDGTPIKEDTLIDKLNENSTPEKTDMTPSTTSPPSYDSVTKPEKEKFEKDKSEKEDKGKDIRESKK
Sequence of hNaV1.2 (Q07699 19-218, further chain): as the sequence (Q07699 19-218, further chain) above
Protocol: as §1, §2, §3

SMILES | IC50 (hNaV1.4) | Slowing of fast inactivation of NaV1.3 (in words) (NaV1.3) | EC50 (NaV1.3; current measured at 20 ms of the 0 mV depolarization step, 5 min incubation, mean ± SEM, 3 to 5 repeats) | NaV subtype preference of inhibition (in words) (hNaV1.1 to hNaV1.7) | IC50 (hNaV1.1) | 95% CI of off-rate (dissociation time), NaV1.1 (NaV1.1) | Reversibility on NaV1.1 by washing (NaV1.1) | Increase in off-rate through C-terminal amidation, NaV1.1 (NaV1.1; sOa1a-NH2 vs sOa1a-OH) | IC50 (hNaV1.5) | IC50 (hNaV1.2) | Activity on NaV1.4 (in words) (hNaV1.4; tested at up to 3 μM) | Ratio OH/NH2 (IC50 sOa1a-OH / IC50 sOa1a-NH2), NaV1.1 (hNaV1.1; ratio of IC50 values) | Ratio OH/NH2 (IC50 sOa1a-OH / IC50 sOa1a-NH2), NaV1.5 (hNaV1.5; ratio of IC50 values) | Activity on NaV1.2 (in words) (hNaV1.2; tested at up to 3 μM)
CC(C)C[C@@H]1NC(=O)[C@H](Cc2ccccc2)NC(=O)[C@H](Cc2ccc(O)cc2)NC(=O)[C@H](CCCNC(=N)N)NC(=O)[C@@H](NC(=O)[C@@H](N)CCC(=O)O)CSSC[C@@H]2NC(=O)[C@@H]3CSSC[C@@H](C(=O)N[C@H](C(=O)N[C@@H](Cc4c[nH]c5ccccc45)C(=O)N[C@@H](CC(=O)O)C(=O)N[C@@H](Cc4c[nH]c5ccccc45)C(=O)N[C@H](C(=O)N[C@@H](Cc4ccccc4)C(N)=O)[C@@H](C)O)C(C)C)NC(=O)[C@H](Cc4c[nH]c5ccccc45)NC(=O)[C@H](CCC(N)=O)NC(=O)[C@H](Cc4c[nH]cn4)NC(=O)[C@H](CCCCN)NC(=O)[C@H](CC(N)=O)NC(=O)[C@H](Cc4c[nH]cn4)NC(=O)[C@H](CSSC[C@H](NC(=O)CNC(=O)CNC1=O)C(=O)N[C@@H](CO)C(=O)N[C@@H](CCC(N)=O)C(=O)NCC(=O)N[C@@H](CCC(=O)O)C(=O)N[C@@H](CCCCN)C(=O)N3)NC(=O)[C@H](C(C)C)NC(=O)[C@H](CC(C)C)NC(=O)[C@H](Cc1c[nH]cn1)NC(=O)[C@H](CCC(=O)O)NC2=O [sOa1a-NH2] (H-ECRYFLGGCSQGEKCCEHLVCHNKHQWCVWDWTF-NH2; disulfide 2-16, 9-21, 15-28; N-terminus assumed) | 2290 ± 77 nM | strongly slowing the fast inactivation of NaV1.3 | 22.9 ± 1.8 nM | strong preference for inhibiting NaV1.1 | 17 ± 1 nM | Off-rate 4.6 min (95% CI = 4.27 to 4.97 min) | completely reversed by washing | 1 min | 192 ± 4 nM | 154 ± 7 nM |  |  |  | 
CC(C)C[C@@H]1NC(=O)[C@H](Cc2ccccc2)NC(=O)[C@H](Cc2ccc(O)cc2)NC(=O)[C@H](CCCNC(=N)N)NC(=O)[C@@H](NC(=O)[C@@H](N)CCC(=O)O)CSSC[C@@H]2NC(=O)[C@@H]3CSSC[C@@H](C(=O)N[C@H](C(=O)N[C@@H](Cc4c[nH]c5ccccc45)C(=O)N[C@@H](CC(=O)O)C(=O)N[C@@H](Cc4c[nH]c5ccccc45)C(=O)N[C@H](C(=O)N[C@@H](Cc4ccccc4)C(=O)O)[C@@H](C)O)C(C)C)NC(=O)[C@H](Cc4c[nH]c5ccccc45)NC(=O)[C@H](CCC(N)=O)NC(=O)[C@H](Cc4c[nH]cn4)NC(=O)[C@H](CCCCN)NC(=O)[C@H](CC(N)=O)NC(=O)[C@H](Cc4c[nH]cn4)NC(=O)[C@H](CSSC[C@H](NC(=O)CNC(=O)CNC1=O)C(=O)N[C@@H](CO)C(=O)N[C@@H](CCC(N)=O)C(=O)NCC(=O)N[C@@H](CCC(=O)O)C(=O)N[C@@H](CCCCN)C(=O)N3)NC(=O)[C@H](C(C)C)NC(=O)[C@H](CC(C)C)NC(=O)[C@H](Cc1c[nH]cn1)NC(=O)[C@H](CCC(=O)O)NC2=O [sOa1a-OH] (H-ECRYFLGGCSQGEKCCEHLVCHNKHQWCVWDWTF-OH; disulfide 2-16, 9-21, 15-28; N-terminus assumed) | > 3000 nM | this dual modulatory activity was not observed |  | strong preference for inhibiting NaV1.1 | 274 ± 18 nM | Off-rate 3.56 min (95% CI = 3.35 to 3.80 min) | completely reversed by washing |  | 1270 ± 22 nM | > 3000 nM | no activity | 16 | 6.6 | no activity
